Test results published in patent US4461899A, “Fluorenecarboxylic acid derivatives” (Diamond Shamrock Chemicals Company, priority 1982, dated 1984).
“Also recorded” adds a separate entry of the source. Where a name gives a salt, the structure may show the parent alone.

Experiments:
Format in all cases: in vivo
[1] = system: field grown tomato plants; experiment: Overall yield and fruit size of field grown tomatoes; settings: for tomato yield / fruit size, in words: 10, 50 and 500 ppm, Example 1 decrease at 500 ppm; for Fruit Size, Green (% of Control): control 104.0 g; for Fruit Size, Red (% of Control): control 105.5 g
From the text: This example illustrates the effects of compounds of this invention on overall yield of tomatoes. For the test, field grown tomato plants, when in the early flowering stage, were foliage sprayed with the particular compounds of the invention designated below, and with the commercial product CF-125 (Maintain), at rates of 10, 50 and 500 ppm. These rates correspond to applications of 3.69 g, 18.54 g and 185.4 g/hectare, respectively. Each treatment consisted of five plants; the experimental design was a complete randomized block with three replications. A block of untreated plants was included as the control. The fruit was harvested by hand and separated into […] ripe fruit and marketable green fruit.

soybean plants = experiment: Soybean yield after foliar spray at early flowering stage; settings: for Yield Improvement %: vs control
From the text: Two 50 cm rows of soybean plants at the early flowering stage were sprayed with 100 ppm or 500 ppm of the cis-2,5-dimethylpyrrolidine salt of 9-fluorenecarboxylic acid, using a spray volume of about 375 liters/hectare (40 gallons/acre). For comparison, other rows were sprayed with like concentrations of two known compounds as designated below. Also 2 untreated rows were maintained to serve as a control: each of the plots was weeded by hand as needed. At maturity, each plot was harvested and the yield was determined.

[2] = system: "Walter" variety tomato plants; experiment: Yield of "Walter" variety tomatoes, weekly harvest of mature red fruit; settings: for Total Fruit / Total Fruit, % of Control: weeks 1-6
From the text: Compounds of this invention were further tested as tomato yield enhancers as follows:
"Walter" variety tomato plants, in the early flowering stage, were foliage sprayed at a rate of 68.8 liters/hectare with compounds of this invention, and with the commercial product, CF-125. Each plot consisted of 20 plants; the experimental design was a completed randomized block with three replications. A plot of untreated plants was included as a control. Marketable, mature red tomatoes were harvested weekly, beginning 5 weeks after treatment.

[3] = system: field grown tomato plants; experiment: Fruit set and phytotoxicity in field grown tomato plants; settings: for Increase Over Control (%) of fruit set: 24 days; for Fruit Set Per Plant (After 24 days) / Phytotoxicity: 24 days after treatment; for Increase (%) of fruit set: initial to 24 days
From the text: To determine fruit set effects by compounds of this invention, field grown tomato plants were foliage sprayed with the cis-2,5-dimethylpyrrolidine salt of […], 9-cis-2,5-dimethyl-1-pyrrolidinyl-2-chlorofluorene-9-carboxylic acid, methyl ester, and the commercial plant growth regulant, MAINTAIN CF-125 (methyl-2-chloro-9hydroxyfluorene-9-carboxylate, manufactured by U.S. Borax and Chemical Corp.). Rates of application employed were 5, 25, and 100 ppm when the tomato plants were in the late blooming to early fruit setting stage. Untreated plants were included in the test as controls. Five plants were sprayed for each chemical treatment. The number of fruit set and the degree of phytotoxicity to the plants were determined 24 days after treatment.

## O=C(O)c1cccc2c1Cc1ccccc1-2 [Example 3, 2,6-Dimethyl piperidine salt of fluorene-1-carboxylic acid]
[1]
  tomato yield / fruit size, in words: increased the yield of red fruit at all rates of application; also recorded: increasing the size of the fruit
[1]; 10 ppm
  Fruit Yield, Green (% of Control): 45 % of Control
  Fruit Yield, Red (% of Control): 119 % of Control
  Total Yield (% of Control): 70 % of Control
  Fruit Size, Green (% of Control): 137 % of Control
  Fruit Size, Red (% of Control): 161 % of Control
[1]; 50 ppm
  Fruit Yield, Green (% of Control): 69 % of Control
  Fruit Yield, Red (% of Control): 122 % of Control
  Total Yield (% of Control): 128 % of Control
  Fruit Size, Green (% of Control): 101 % of Control
  Fruit Size, Red (% of Control): 165 % of Control
[1]; 500 ppm
  Fruit Yield, Green (% of Control): 86 % of Control
  Fruit Yield, Red (% of Control): 127 % of Control
  Total Yield (% of Control): 59 % of Control
  Fruit Size, Green (% of Control): 83 % of Control
  Fruit Size, Red (% of Control): 127 % of Control

## O=C(O)c1cccc2c1Cc1ccccc1-2 [1-fluorenecarboxylic acid]
Soybean plants; 100 ppm
  Yield (Kilograms) × 10^2: 17.16 Kilograms × 10^2
  Yield Improvement %: -2.7%
Soybean plants; 500 ppm
  Yield (Kilograms) × 10^2: 17.34 Kilograms × 10^2
  Yield Improvement %: -1.5%

## O=C(O)C1c2ccccc2-c2ccccc21 [9-fluorenecarboxylic acid]
Soybean plants; 100 ppm
  Yield (Kilograms) × 10^2: 18.93 Kilograms × 10^2
  Yield Improvement %: 7.3%
Soybean plants; 500 ppm
  Yield (Kilograms) × 10^2: 19.02 Kilograms × 10^2
  Yield Improvement %: 7.5%

## C[C@@H]1CC[C@H](C)N1.O=C(O)C1c2ccccc2-c2ccccc21 [Example 15, Cis-2,5-dimethylpyrrolidine salt of 9-fluorenecarboxylic acid]
Soybean plants; particularly at 500 ppm, over untreated control and fluorenecarboxylic acids
  soybean yield, in words: significantly enhances soybean yield over the untreated control plot and over plots treated with known morphactins

## COC(=O)C1(N2[C@H](C)CC[C@@H]2C)c2ccccc2-c2ccc(Cl)cc21 (stereo partly drawn) [Example 8, 9-cis-2,5-dimethyl-1-pyrrolidinyl-2-chlorofluorene-9-carboxylic acid, methyl ester]
[1]
  tomato yield / fruit size, in words: became inhibitory above the 50 ppm rate
[1]; 10 ppm
  Fruit Yield, Green (% of Control): 64 % of Control
  Fruit Yield, Red (% of Control): 161 % of Control
  Total Yield (% of Control): 97 % of Control
  yield of red fruit over the control yield: 61%
  Fruit Size, Green (% of Control): 93 % of Control
  Fruit Size, Red (% of Control): 82 % of Control
[1]; 50 ppm
  Fruit Yield, Green (% of Control): 26 % of Control
  Fruit Yield, Red (% of Control): 93 % of Control
  Total Yield (% of Control): 49 % of Control
  Fruit Size, Green (% of Control): 46 % of Control
  Fruit Size, Red (% of Control): 95 % of Control
[1]; 500 ppm
  Fruit Yield, Green (% of Control): 0 % of Control
  Fruit Yield, Red (% of Control): 76 % of Control
  Total Yield (% of Control): 26 % of Control
  Fruit Size, Green (% of Control): 0 % of Control
  Fruit Size, Red (% of Control): 67 % of Control
[2]; 5-10 ppm
  increased tomato yields above the yield of control plots: 39-80%
[2]; 5 ppm
  Fruit Yield (kg/plot): 32.8 kg/plot
  Total Yield Wt. % of Control: 139.0 % of Control
  Fruit harvested, Harvest Time (Week) 1: 11
  Fruit harvested, Harvest Time (Week) 2: 109
  Fruit harvested, Harvest Time (Week) 3: 103
  Fruit harvested, Harvest Time (Week) 4: 168
  Fruit harvested, Harvest Time (Week) 5: 208
  Fruit harvested, Harvest Time (Week) 6: 286
  Total Fruit: 885
  Total Fruit, % of Control: 154 % of Control
[2]; 10 ppm
  Fruit Yield (kg/plot): 42.6 kg/plot
  Total Yield Wt. % of Control: 180.5 % of Control
  Fruit harvested, Harvest Time (Week) 1: 13
  Fruit harvested, Harvest Time (Week) 2: 123
  Fruit harvested, Harvest Time (Week) 3: 126
  Fruit harvested, Harvest Time (Week) 4: 240
  Fruit harvested, Harvest Time (Week) 5: 306
  Fruit harvested, Harvest Time (Week) 6: 296
  Total Fruit: 1104
  Total Fruit, % of Control: 192 % of Control
[2]; 50 ppm
  Fruit Yield (kg/plot): 15.4 kg/plot
  Total Yield Wt. % of Control: 65.3 % of Control
  Fruit harvested, Harvest Time (Week) 1: 34
  Fruit harvested, Harvest Time (Week) 2: 150
  Fruit harvested, Harvest Time (Week) 3: 81
  Fruit harvested, Harvest Time (Week) 4: 25
  Fruit harvested, Harvest Time (Week) 5: 9
  Fruit harvested, Harvest Time (Week) 6: 100
  Total Fruit: 399
  Total Fruit, % of Control: 69 % of Control
[3]; 5 ppm
  Increase Over Control (%) of fruit set: 36%
  Fruit Set Per Plant (After 24 days): 19.6
  Phytotoxicity: 0
  Fruit Set Per Plant (Initial): 9.4
  Increase (%) of fruit set: 109%
[3]; 25 ppm
  Increase Over Control (%) of fruit set: 9%
  Fruit Set Per Plant (After 24 days): 18.6
  Phytotoxicity: 0
  Fruit Set Per Plant (Initial): 10.2
  Increase (%) of fruit set: 82%
[3]; 100 ppm
  Increase Over Control (%) of fruit set: -23%
  Fruit Set Per Plant (After 24 days): 15.6
  Fruit Set Per Plant (Initial): 10.4
  Increase (%) of fruit set: 50%
